Source: patent US4265912A, “Glaucine lactate salts” (priority 1979, dated 1981)
Counter-ions that a name gives are not always drawn. Like-named read-outs stand apart in the source and are kept apart here.

How the values were obtained:
[1] = solubility in cough syrup vehicle; type: physicochemical; settings: cough syrup vehicle of Example 4
Procedure: A cough syrup vehicle formulation was prepared containing the following pharmaceutically-acceptable excipients: […]

[2] = type: physicochemical; settings: syrup; for percent of original concentration retained after one month: 0.6 percent d,l-glaucine lactate, 0.2 percent codeine phosphate or d,l-glaucine hydrobromide, 43800 min; for Percentage Remaining after 3 months at 40° C. / Percentage Remaining after 3 months at 55° C. / Percentage Remaining after 3 months at Ambient: 131400 min
Procedure: Stability of d,l-glaucine lactate was examined in the syrup vehicle of Example 4.
Syrups containing codeine phosphate, 0.2 percent, contained 97.5, 104.5 or 100 percent, respectively, after one month at ambient temperature, 40° C. or 55° C. […] After three months, the percentage amount of antitussive agent remaining was as shown below

[3] = stability of syrup with continuous exposure to light in amber and flint glass bottles; type: physicochemical; settings: for assay after one month with continuous exposure to light, amber glass bottles / assay after one month with continuous exposure to light, flint glass bottles: ambient temperature, about 2000 Foot-candles, 24 hours/day, 43800 min; for assay after one month with continuous exposure to light, flint glass bottles: transparent (flint) glass
Procedure: In a procedure similar to that of Example 5, syrup formulations were prepared, placed in amber glass bottles and transparent (flint) glass bottles, and held under conditions of ambient temperature with continuous exposure to light. (About 2000 Foot-candles of combined fluorescent and incandescent light, for 24 hours/day.)

[4] = test system: guinea pigs (coughing, citric acid aerosol); assay: antitussive activity, citric acid aerosol test, oral; type: in vivo; settings: Cavia porcellus, 1 h, 5 percent citric acid aerosol one hour after dosing
Procedure: Separate groups of guinea pigs were orally administered various doses of a test compound, or distilled water for a control group. One hour after oral dosing, the guinea pigs were exposed to a 5 percent aerosol of citric acid for a 10 minute test period. The number of cough responses produced during the last five minutes of exposure to the citric acid aerosol was recorded and the dosage effect to suppress coughing in 50 percent of the guinea pigs (ED50) was calculated. An antitussive effect was recorded for a guinea pig when its total number of coughs during the 5 minute test period were at least two standard deviation units below the mean number of coughs per guinea pig in the control group. […];

[5] = test system: guinea pigs (coughing, citric acid aerosol); assay: antitussive activity, citric acid aerosol test, intraperitoneal injection; type: in vivo; settings: Cavia porcellus, ip
Procedure: Separate groups of guinea pigs were orally administered various doses of a test compound, or distilled water for a control group. One hour after oral dosing, the guinea pigs were exposed to a 5 percent aerosol of citric acid for a 10 minute test period. The number of cough responses produced during the last five minutes of exposure to the citric acid aerosol was recorded and the dosage effect to suppress coughing in 50 percent of the guinea pigs (ED50) was calculated. An antitussive effect was recorded for a guinea pig when its total number of coughs during the 5 minute test period were at least two standard deviation units below the mean number of coughs per guinea pig in the control group. […]; In an operation similar to that of Example 2, test compounds were administered to guinea pigs by intraperitoneal injection, with one group of guinea pigs receiving distilled water as a control. ED50 's were calculated for antitussive activity in the citric acid aerosol test as described in Example 2. […];

[6] = stability of crystalline d,l-glaucine lactate on storage; type: physicochemical; settings: crystalline solid, 2 months storage at 40° C., read-out: percent of original assay retained, crystalline solid
[7] = test system: mouse (phenyl-p-quinone writhing); assay: analgesic activity, phenyl-p-quinone mouse writhing test; type: in vivo; settings: oral, 30 minutes prior to phenyl-p-quinone challenge
Procedure: Test compounds were evaluated for analgesic activity in the phenyl-p-quinone mouse writhing test of Hendershot & Forsaith, J. Pharmacol. Exptl. Therap. 125(3) 237 (1959). The test compounds were administered orally 30 minutes prior to the phenyl-p-quinone challenge.

mice = type: in vivo; settings: for stimulation and Straub tail: mouse, in vivo, 100 mg/kg; for mice jumping after naloxone: naloxone 100 mg/kg intraperitoneal after increasing doses on two consecutive days
Procedure: Physical dependency liability was evaluated in mice by the procedure of Saelens, et al., Arch. Int. Pharmacodynam, 190:213-218, 1971. In this procedure, mice are administered increasing doses of a test compound at intervals on two consecutive days. The last dosage on the second day is followed by intraperitoneal injection of the morphine antagonist, naloxone, at a dosage of 100 mg/kg, and the mice are observed for characteristic jumping behaviour indicative of opiate withdrawals or morphine antagonism.

| Compound | ED50 [4] [mg/kg] | ED50 [5] [mg/kg] | percent of original concentration retained after one month ([2]; 40° C.) [%] | percent of original concentration retained after one month ([2]; 55° C.) [%] | percent of original concentration retained after one month ([2]; ambient temperature) [%] | Percentage Remaining after 3 months at 40° C. ([2]; 40° C.) [%] | Percentage Remaining after 3 months at 55° C. ([2]; 55° C.) [%] | Percentage Remaining after 3 months at Ambient [2] [%] | assay after one month with continuous exposure to light, amber glass bottles [3] [%] | assay after one month with continuous exposure to light, flint glass bottles [3] [%] | ED50 [7] [mg/kg] | stimulation and Straub tail (mice) | mice jumping after naloxone (mice) | further results |
| --- | --- | --- | --- | --- | --- | --- | --- | --- | --- | --- | --- | --- | --- | --- |
| COc1cc2c(cc1OC)-c1c(OC)c(OC)cc3c1C(C2)N(C)CC3 (racemic) [d,l-glaucine hydrobromide] |  |  |  |  |  |  |  |  |  |  |  |  |  | solubility in cough syrup vehicle ([1]; hydrobromide): 0.3%; solubility in cough syrup vehicle per 5 milliliter dosage unit ([1]; hydrobromide): about 15 milligrams per 5 milliliter dosage unit; percent of original concentration retained after one month ([2]; 40° C., hydrobromide): 96%; percent of original concentration retained after one month ([2]; 55° C., hydrobromide): 89.5%; percent of original concentration retained after one month ([2]; ambient temperature, hydrobromide): 99%; Percentage Remaining after 3 months at 40° C. ([2]; 40° C., listed as d,l-Glaucine . HBr, hydrobromide): 93.3%; Percentage Remaining after 3 months at 55° C. ([2]; 55° C., listed as d,l-Glaucine . HBr, hydrobromide): 91.4%; Percentage Remaining after 3 months at Ambient ([2]; listed as d,l-Glaucine . HBr, hydrobromide): 100.8%; assay after one month with continuous exposure to light, amber glass bottles ([3]; hydrobromide): 84%; assay after one month with continuous exposure to light, flint glass bottles ([3]; hydrobromide): 74.5% |
| COc1cc2c(cc1OC)-c1c(OC)c(OC)cc3c1C(C2)N(C)CC3 (racemic) [d,l-glaucine lactate] | 63.4 | 7.9 | 100.6 | 96.7 | 98.8 | 97.0 | 97.4 | 104.1 | 94 | 80.6 | 25.5 |  |  | solubility in cough syrup vehicle [1]: 2%; solubility in cough syrup vehicle per 5 milliliter dosage unit [1]: about 100 milligrams per 5 milliliter dosage unit; remaining at 1460 h [6]: > 99% |
| COc1cc2c(cc1OC)-c1c(OC)c(OC)cc3c1C(C2)N(C)CC3 (racemic) [d,l-Glaucine lactate (2:3)] |  |  |  |  |  |  |  |  |  |  |  | no Straub tail | no jumping behaviour in any of the ten mice |  |
| COc1ccc2c3c1O[C@H]1[C@@H](O)C=C[C@H]4[C@@H](C2)N(C)CC[C@@]341 [codeine phosphate] | 86.6 | 10.9 | 104.5 | 100 | 97.5 | 101.1 | 88.4 | 101.3 | 100 | 100 | 21.2 | Straub tail and stimulation | 2 of 6 | stability in both types of container ([3]; amber and flint glass, light, one month): appeared stable in both types of container; total number of jumps after naloxone (mice; naloxone 100 mg/kg intraperitoneal): 23 jumps total |
| COc1cc2c(cc1OC)-c1c(OC)c(OC)cc3c1[C@H](C2)N(C)CC3 [d-glaucine hydrobromide] | 89 | 10 |  |  |  |  |  |  |  |  | 34 |  |  |  |
